From patent publication US10392422B2, “Macrocyclic broad spectrum antibiotics” (priority 2014, dated 2019)
In brackets after ≈: the same amount, converted by molar mass. Like-named read-outs stand apart in the source and are kept apart here.

What was measured:
Test in all cases: MIC, broth micro-dilution technique (CLSI)
[1] = system: Escherichia coli MC4100 harboring the IMP4213; assay type: cell-based; conditions: 35° C., 22 hours; for MIC: Escherichia coli, 22 h, read-out: MIC (μg/mL) E. coli, Table 1 protocol: serial 2-fold dilutions starting from 64 μg/ml; for MIC (μg/mL) E. coli: Table 1 protocol: serial 2-fold dilutions starting from 64 μg/ml
Description: (§1) In vitro antimicrobial activity of each compound was determined by measuring minimal inhibitor concentrations (MICs) using the broth micro-dilution technique as approved by the Clinical and Laboratory Standards Institute (CLSI) (Methods for Dilution Antimicrobial Susceptibility Tests for Bacteria that Grow Aerobically; Approved Standard—Eighth Edition. CLSI document M07-A8. Wayne, Pa.: Clinical and Laboratory Standards; 2009). Antibacterial activity was measured against three strains of bacteria: a Methicillin Resistant Staphylococcus aureus strain USA 300 (NRS384); a MRSA COL (NRS100), another Methicillin Resistant Staphylococcus aureus strain; and a strain of Escherichia coli MC4100 harboring the IMP4213, which results in increased outer-membrane permeability (B Martin and Silhavy T. Imp/OstA is required for cell envelope biogenesis in Escherichia coli. (2002) Molecular Microbiology, 45(5), 1289-1302). Cells were inoculated onto plates of Trypyticase Soy Agar or Luria Agar respectively and grown at 35° C. for 20 hours. Inocula suspensions were prepared by scraping cells into 1 ml of testing media (cation adjusted Mueller Hinton Broth supplemented with 0.002% v/v Tween-80) and diluting to a final OD600 nm of 0.01.
(§2) Test compounds were prepared in DMSO at a concentration of 10 mg/ml. These compound stocks were diluted into testing media at a concentration of 64 μg/ml and serial 2-fold dilutions were made in the same media, in 96-well U bottom microtiter dishes, for a total of 10 compound concentrations (Table 1). In modified protocols (Table 2), compound stocks were diluted into testing media at a concentration of 4 μg/mL and serial 2-fold dilutions were made in the same media, in 96-well U bottom microtiter dishes, for a total of 10 compound concentrations. Inocula suspensions were added to the 2-fold serial dilutions of test compounds to a final density of OD OD600 nm of 0.0005 and incubated at 35° C. for 22 hours. […] The results from the protocol starting from a concentration of 64 µg/mL are listed in Table 1 and the results from the modified protocol are shown in Table 2.

[2] = system: Methicillin Resistant Staphylococcus aureus strain USA 300 (NRS384); assay type: cell-based; conditions: for MIC: Staphylococcus aureus, 22 h, read-out: MIC (μg/mL) S. aureus
Description: as §1, §2

MRSA COL (NRS100) = assay type: cell-based, Staphylococcus aureus; conditions: Staphylococcus aureus, 22 h, read-out: MIC (μg/mL) (COL)
Description: as §1, §2

[3] = Table 1 protocol: serial 2-fold dilutions starting from 64 μg/ml, 35° C., 22 hours

Row | Structure (SMILES) | MIC [1] [µg/mL] | MIC [2, 3] [µg/mL] | MIC [2] [µg/mL] | other results
1 | C[C@@H]1NC(=O)[C@@H](N(C)C(=O)[C@H](CCCCN)NC(=O)c2ccc(-c3ccc(Cl)cc3)cc2)c2ccc(O)c(c2)-c2cc(ccc2O)C[C@@H](C(=O)N[C@@H](C)C(=O)C2CO2)NC1=O (some centres unmarked) [Compound 104] | 2 (≈ 2.34 µM) | 2.8 (≈ 3.28 µM) | – | MIC (MRSA COL (NRS100); [3]): 2 µg/mL (≈ 2.34 µM)
2 | CC(=O)[C@H](C)NC(=O)[C@@H]1Cc2ccc(O)c(c2)-c2cc(ccc2O)[C@H](N(C)C(=O)[C@H](CCCCN)NC(=O)c2ccc(-c3ccc(Cl)cc3)cc2)C(=O)N[C@@H](C)C(=O)N1 [Compound 109] | 64 (≈ 77.5 µM) | – | 4 (≈ 4.85 µM) | MIC (MRSA COL (NRS100)): 1 µg/mL (≈ 1.21 µM)
3 | CCCCCCCCCCNCCC(=O)N[C@@H](CCCCN)C(=O)N(C)[C@@H]1C(=O)N[C@@H](C)C(=O)N[C@H](C(=O)O)Cc2ccc(O)c(c2)-c2cc1ccc2O [Compound 110] | 64 (≈ 85 µM) | – | 29 (≈ 38.5 µM) | MIC (MRSA COL (NRS100)): 8 µg/mL (≈ 10.6 µM)
4 | C[C@H](NCC(=O)[C@H](C)NC(=O)[C@@H]1Cc2ccc(O)c(c2)-c2cc(ccc2O)[C@H](N(C)C(=O)[C@H](CCCCN)NC(=O)c2ccc(-c3ccc(Cl)cc3)cc2)C(=O)N[C@@H](C)C(=O)N1)C(N)=O [Compound 125] | – | – | 32 (≈ 35.1 µM) | MIC (MRSA COL (NRS100)): 8 µg/mL (≈ 8.78 µM)
5 | C[C@H](NC(=O)[C@@H]1Cc2ccc(O)c(c2)-c2cc(ccc2O)[C@H](N(C)C(=O)[C@H](CCCCN)NC(=O)c2ccc(-c3ccc(Cl)cc3)cc2)C(=O)N[C@@H](C)C(=O)N1)C(=O)/C=C/c1c[nH]cn1 [Compound 131] | > 64 | > 64 | – | –
6 | C[C@H](NC(=O)[C@@H]1Cc2ccc(O)c(c2)-c2cc(ccc2O)[C@H](N(C)C(=O)[C@H](CCCCN)NC(=O)c2ccc(-c3ccc(Cl)cc3)cc2)C(=O)N[C@@H](C)C(=O)N1)C(=O)CS(N)(=O)=O [Compound 143] | 51 (≈ 56.4 µM) | – | 6.3 (≈ 6.97 µM) | –
7 | CCOC(=O)CCC(=O)[C@H](C)NC(=O)[C@@H]1Cc2ccc(O)c(c2)-c2cc(ccc2O)[C@H](N(C)C(=O)[C@H](CCCCN)NC(=O)c2ccc(-c3ccc(Cl)cc3)cc2)C(=O)N[C@@H](C)C(=O)N1 [Compound 146] | – | – | 16 (≈ 17.6 µM) | MIC (MRSA COL (NRS100)): 8 µg/mL (≈ 8.78 µM)
8 | C[C@H](NC(=O)[C@@H]1Cc2ccc(O)c(c2)-c2cc(ccc2O)[C@H](N(C)C(=O)[C@H](CCCCN)NC(=O)c2ccc(-c3ccc(Cl)cc3)cc2)C(=O)N[C@@H](C)C(=O)N1)C(=O)CCC(N)=O [Compound 148] | – | – | 64 (≈ 72.5 µM) | MIC (MRSA COL (NRS100)): 32 µg/mL (≈ 36.3 µM)
9 | C[C@@H]1NC(=O)[C@@H](N(C)C(=O)[C@H](CCCCN)NC(=O)c2ccc(-c3ccc(Cl)cc3)cc2)c2ccc(O)c(c2)-c2cc(ccc2O)C[C@@H](C(=O)NCC(=O)CC2CCNC2=O)NC1=O (some centres unmarked) [Compound 150] | – | > 64 | – | MIC (μg/mL) E. coli [1]: 8 µg/mL (≈ 8.94 µM)
10 | C[C@@H]1NC(=O)[C@@H](N(C)C(=O)[C@H](CCCCN)NC(=O)c2ccc(-c3ccc(Cl)cc3)cc2)c2ccc(O)c(c2)-c2cc(ccc2O)C[C@@H](C(=O)NCC(=O)CC2CCNC2=O)NC1=O (some centres unmarked) [Compound 151] | – | – | – | MIC (μg/mL) E. coli [1]: 32 µg/mL (≈ 35.8 µM); MIC (μg/mL) S. aureus [2, 3]: >64 µg/mL
11 | CC(O)[C@@H]1Cc2ccc(O)c(c2)-c2cc(ccc2O)[C@H](N(C)C(=O)[C@H](CCCCN)NC(=O)c2ccc(-c3ccc(Cl)cc3)cc2)C(=O)N[C@@H](C)C(=O)N1 (some centres unmarked) [Compound 154] | 64 (≈ 84.6 µM) | – | 64 (≈ 84.6 µM) | –
12 | C[C@@H]1NC(=O)[C@@H](N(C)C(=O)[C@H](CCCCN)NC(=O)c2ccc(-c3ccc(Cl)cc3)cc2)c2ccc(O)c(c2)-c2cc(ccc2O)C[C@@H](C(=O)N[C@@H](C)C(=O)N2CCCC2)NC1=O [Compound 156] | 51 (≈ 57.9 µM) | – | > 64 | –
13 | C[C@@H]1NC(=O)[C@@H](N(C)C(=O)[C@H](CCCCN)NC(=O)c2ccc(-c3ccc(Cl)cc3)cc2)c2ccc(O)c(c2)-c2cc(ccc2O)C[C@@H](C(=O)N[C@@H](C)C(=O)N2CCC[C@H]2CO)NC1=O [Compound 157] | 45 (≈ 49.4 µM) | – | > 64 | –
14 | C[C@@H]1NC(=O)[C@@H](N(C)C(=O)[C@H](CCCCN)NC(=O)c2ccc(-c3ccc(Cl)cc3)cc2)c2cc(Br)c(O)c(c2)-c2cc(cc(Br)c2O)C[C@@H](C(=O)O)NC1=O [Compound 164] | 8 (≈ 8.75 µM) | – | 32 (≈ 35 µM) | –
15 | C[C@@H]1NC(=O)[C@@H](N(C)C(=O)[C@H](CCCCN)NC(=O)c2ccc(-c3ccc(Cl)cc3)cc2)c2ccc(O)c(c2)-c2cc(cc(Br)c2O)C[C@@H](C(=O)O)NC1=O [Compound 165] | 11 (≈ 13.2 µM) | – | 45 (≈ 53.9 µM) | –
16 | C[C@@H]1NC(=O)[C@@H](N(C)C(=O)[C@H](CCCCN)NC(=O)c2ccc(-c3ccc(Cl)cc3)cc2)c2ccc(O)c(c2)-c2cc(ccc2O)C[C@@H](C(=O)N[C@@H](C)C(=O)N2CC[C@H](O)[C@H]2C(N)=O)NC1=O [Compound 168] | 32 (≈ 34.1 µM) | 5.7 (≈ 6.07 µM) | – | –
17 | C[C@@H]1NC(=O)[C@@H](N(C)C(=O)[C@H](CCCCN)NC(=O)c2ccc(-c3ccc(Cl)cc3)cc2)c2ccc(O)c(c2)-c2cc(ccc2O)C[C@@H](C(=O)N[C@@H](C)C(=O)N2C[C@H](O)C[C@H]2C(N)=O)NC1=O [Compound 169] | 64 (≈ 68.1 µM) | 45 (≈ 47.9 µM) | – | –
18 | C[C@@H]1NC(=O)[C@@H](N(C)C(=O)[C@H](CCCCN)NC(=O)c2ccc(-c3ccc(Cl)cc3)cc2)c2ccc(O)c(c2)-c2cc(ccc2O)C[C@@H](C(=O)N[C@@H](C)C(=O)N2C[C@H]3C[C@H]3[C@H]2C(N)=O)NC1=O [Compound 170] | 64 (≈ 68.4 µM) | 45 (≈ 48.1 µM) | – | –
19 | C[C@@H]1NC(=O)[C@@H](N(C)C(=O)[C@H](CCCCN)NC(=O)c2ccc(-c3ccc(Cl)cc3)cc2)c2ccc(O)c(c2)-c2cc(ccc2O)C[C@@H](C(=O)N[C@@H](C)C(=O)N2CC[C@H]2C(N)=O)NC1=O [Compound 171] | 64 (≈ 70.4 µM) | 20 (≈ 22 µM) | – | –
20 | C[C@@H]1NC(=O)[C@@H](N(C)C(=O)[C@H](CCCCN)NC(=O)c2ccc(-c3ccc(Cl)cc3)cc2)c2ccc(O)c(c2)-c2cc(ccc2O)C[C@@H](C(=O)N[C@@H](C)C(=O)N2C[C@@H](F)C[C@H]2C(N)=O)NC1=O [Compound 172] | 64 (≈ 68 µM) | 16 (≈ 17 µM) | – | –
21 | C[C@@H]1NC(=O)[C@@H](N(C)C(=O)[C@H](CCCCN)NC(=O)c2ccc(-c3ccc(Cl)cc3)cc2)c2ccc(O)c(c2)-c2cc(ccc2O)C[C@@H](C(=O)N[C@@H](C)C(=O)N2CCCC[C@H]2C(N)=O)NC1=O [Compound 173] | 32 (≈ 34.1 µM) | 64 (≈ 68.3 µM) | – | –
22 | C[C@@H]1NC(=O)[C@@H](N(C)C(=O)[C@H](CCCCN)NC(=O)c2ccc(-c3ccc(Cl)cc3)cc2)c2ccc(O)c(c2)-c2cc(ccc2O)C[C@@H](C(=O)N[C@@H](C)C(=O)N2CC(F)(F)C[C@H]2C(N)=O)NC1=O [Compound 174] | 64 (≈ 66.7 µM) | 9.5 (≈ 9.9 µM) | – | –
23 | C[C@@H]1NC(=O)[C@@H](N(C)C(=O)[C@H](CCCCN)NC(=O)c2ccc(-c3ccc(Cl)cc3)cc2)c2ccc(O)c(c2)-c2cc(ccc2O)C[C@@H](C(=O)N[C@@H](C)C(=O)N2CCC[C@H]2C(=O)NCC(N)=O)NC1=O [Compound 178] | – | 32 (≈ 32.6 µM) | – | MIC (MRSA COL (NRS100); [3]): 16 µg/mL (≈ 16.3 µM)
24 | C[C@@H]1NC(=O)[C@@H](N(C)C(=O)[C@H](CCCCN)NC(=O)c2ccc(-c3ccc(Cl)cc3)cc2)c2ccc(O)c(c2)-c2cc(ccc2O)C[C@@H](C(=O)NCC(=O)N2CC[C@H](O)[C@H]2C(N)=O)NC1=O [Compound 180] | 64 (≈ 69.2 µM) | 64 (≈ 69.2 µM) | – | –
25 | CC[C@H](NC(=O)[C@@H]1Cc2ccc(O)c(c2)-c2cc(ccc2O)[C@H](N(C)C(=O)[C@H](CCCCN)NC(=O)c2ccc(-c3ccc(Cl)cc3)cc2)C(=O)N[C@@H](C)C(=O)N1)C(=O)N1CCC[C@H]1C(N)=O [Compound 181] | 64 (≈ 68.3 µM) | 23 (≈ 24.5 µM) | – | –
26 | CONC(=O)[C@@H]1CCCN1C(=O)[C@H](C)NC(=O)[C@@H]1Cc2ccc(O)c(c2)-c2cc(ccc2O)[C@H](N(C)C(=O)[C@H](CCCCN)NC(=O)c2ccc(-c3ccc(Cl)cc3)cc2)C(=O)N[C@@H](C)C(=O)N1 [Compound 185] | 64 (≈ 67.1 µM) | – | 45 (≈ 47.2 µM) | –
27 | CC(=O)[C@H](C)NC(=O)[C@@H]1Cc2ccc(O)c(c2)-c2cc(ccc2OCCN2CCOCC2)[C@H](N(C)C(=O)[C@H](CCCCN)NC(=O)c2ccc(-c3ccc(Cl)cc3)cc2)C(=O)N[C@@H](C)C(=O)N1 [Compound 203] | – | 23 (≈ 24.5 µM) | – | MIC (MRSA COL (NRS100); [3]): 8 µg/mL (≈ 8.52 µM)
28 | CCCCCCCCCCCCCC(=O)N[C@@H](CCN)C(=O)N(C)[C@@H]1C(=O)N[C@@H](C)C(=O)N[C@H](C(=O)O)Cc2ccc(OCCN)c(c2)-c2cc1ccc2OCCN [Compound 299] | – | – | 0.19 (≈ 0.235 µM) | MIC (MRSA COL (NRS100)): 0.031 µg/mL (≈ 0.0383 µM)
